What was measured:
[1] = target: T-type (Cav3.2) calcium channel (Homo sapiens, UniProt O95180); test: T-type calcium channel block (statement of selectivity)
[2] = Phase 1 first-in-human safety, tolerability and pharmacokinetic studies of Compound A in healthy subjects; format: in vivo
Experimental: (§1) In this study subjects with diabetic neuropathic pain were administered 100 mg BID up to 6 weeks and dosing has been completed. Nevertheless, if there is any new safety signal observed during this study, dosing of Compound A can be discontinued based on the joint decision of the investigators and study sponsor's medical monitor.
(§2) Single doses of Compound A up to 170 mg were well-tolerated in healthy subjects. The Compound A dose of 100 mg twice daily (BID) is the clinical dose used in the ongoing Phase 2a study in subjects with diabetic neuropathic pain. The dose of 100 mg is selected in the current study to explore the effect of Compound A in a microneurography model in order to bridge the efficacy outcome of Compound A in the Phase 2a study.
The safety, tolerability, and pharmacokinetics of Compound A in humans have been evaluated in 94 healthy adult subjects in the Phase 1 first-in-human (FIH) study with the single dose up to 170 mg and multiple doses up to 160 mg for 7 to 14 days. […] Given that Compound A is an investigational drug and this study will be conducted in diabetic patient population that generally has high risk factors, inclusion and exclusion have been carefully established to avoid exposing patients to undue risk. In addition, adequate safety monitoring procedures and stopping criteria are placed in the protocol.

[3] = Ongoing Phase 2 efficacy and safety study in subjects with diabetic neuropathic pain; format: in vivo, human; settings: 100 mg BID up to 6 weeks
Experimental: as §1, §2

[4] = cited from earlier work
[5] = 94 healthy adult subjects, single dose up to 170 mg, multiple doses up to 160 mg for 7 to 14 days

T-type (Cav3.2) calcium channel, sequence (O95180 whole entry): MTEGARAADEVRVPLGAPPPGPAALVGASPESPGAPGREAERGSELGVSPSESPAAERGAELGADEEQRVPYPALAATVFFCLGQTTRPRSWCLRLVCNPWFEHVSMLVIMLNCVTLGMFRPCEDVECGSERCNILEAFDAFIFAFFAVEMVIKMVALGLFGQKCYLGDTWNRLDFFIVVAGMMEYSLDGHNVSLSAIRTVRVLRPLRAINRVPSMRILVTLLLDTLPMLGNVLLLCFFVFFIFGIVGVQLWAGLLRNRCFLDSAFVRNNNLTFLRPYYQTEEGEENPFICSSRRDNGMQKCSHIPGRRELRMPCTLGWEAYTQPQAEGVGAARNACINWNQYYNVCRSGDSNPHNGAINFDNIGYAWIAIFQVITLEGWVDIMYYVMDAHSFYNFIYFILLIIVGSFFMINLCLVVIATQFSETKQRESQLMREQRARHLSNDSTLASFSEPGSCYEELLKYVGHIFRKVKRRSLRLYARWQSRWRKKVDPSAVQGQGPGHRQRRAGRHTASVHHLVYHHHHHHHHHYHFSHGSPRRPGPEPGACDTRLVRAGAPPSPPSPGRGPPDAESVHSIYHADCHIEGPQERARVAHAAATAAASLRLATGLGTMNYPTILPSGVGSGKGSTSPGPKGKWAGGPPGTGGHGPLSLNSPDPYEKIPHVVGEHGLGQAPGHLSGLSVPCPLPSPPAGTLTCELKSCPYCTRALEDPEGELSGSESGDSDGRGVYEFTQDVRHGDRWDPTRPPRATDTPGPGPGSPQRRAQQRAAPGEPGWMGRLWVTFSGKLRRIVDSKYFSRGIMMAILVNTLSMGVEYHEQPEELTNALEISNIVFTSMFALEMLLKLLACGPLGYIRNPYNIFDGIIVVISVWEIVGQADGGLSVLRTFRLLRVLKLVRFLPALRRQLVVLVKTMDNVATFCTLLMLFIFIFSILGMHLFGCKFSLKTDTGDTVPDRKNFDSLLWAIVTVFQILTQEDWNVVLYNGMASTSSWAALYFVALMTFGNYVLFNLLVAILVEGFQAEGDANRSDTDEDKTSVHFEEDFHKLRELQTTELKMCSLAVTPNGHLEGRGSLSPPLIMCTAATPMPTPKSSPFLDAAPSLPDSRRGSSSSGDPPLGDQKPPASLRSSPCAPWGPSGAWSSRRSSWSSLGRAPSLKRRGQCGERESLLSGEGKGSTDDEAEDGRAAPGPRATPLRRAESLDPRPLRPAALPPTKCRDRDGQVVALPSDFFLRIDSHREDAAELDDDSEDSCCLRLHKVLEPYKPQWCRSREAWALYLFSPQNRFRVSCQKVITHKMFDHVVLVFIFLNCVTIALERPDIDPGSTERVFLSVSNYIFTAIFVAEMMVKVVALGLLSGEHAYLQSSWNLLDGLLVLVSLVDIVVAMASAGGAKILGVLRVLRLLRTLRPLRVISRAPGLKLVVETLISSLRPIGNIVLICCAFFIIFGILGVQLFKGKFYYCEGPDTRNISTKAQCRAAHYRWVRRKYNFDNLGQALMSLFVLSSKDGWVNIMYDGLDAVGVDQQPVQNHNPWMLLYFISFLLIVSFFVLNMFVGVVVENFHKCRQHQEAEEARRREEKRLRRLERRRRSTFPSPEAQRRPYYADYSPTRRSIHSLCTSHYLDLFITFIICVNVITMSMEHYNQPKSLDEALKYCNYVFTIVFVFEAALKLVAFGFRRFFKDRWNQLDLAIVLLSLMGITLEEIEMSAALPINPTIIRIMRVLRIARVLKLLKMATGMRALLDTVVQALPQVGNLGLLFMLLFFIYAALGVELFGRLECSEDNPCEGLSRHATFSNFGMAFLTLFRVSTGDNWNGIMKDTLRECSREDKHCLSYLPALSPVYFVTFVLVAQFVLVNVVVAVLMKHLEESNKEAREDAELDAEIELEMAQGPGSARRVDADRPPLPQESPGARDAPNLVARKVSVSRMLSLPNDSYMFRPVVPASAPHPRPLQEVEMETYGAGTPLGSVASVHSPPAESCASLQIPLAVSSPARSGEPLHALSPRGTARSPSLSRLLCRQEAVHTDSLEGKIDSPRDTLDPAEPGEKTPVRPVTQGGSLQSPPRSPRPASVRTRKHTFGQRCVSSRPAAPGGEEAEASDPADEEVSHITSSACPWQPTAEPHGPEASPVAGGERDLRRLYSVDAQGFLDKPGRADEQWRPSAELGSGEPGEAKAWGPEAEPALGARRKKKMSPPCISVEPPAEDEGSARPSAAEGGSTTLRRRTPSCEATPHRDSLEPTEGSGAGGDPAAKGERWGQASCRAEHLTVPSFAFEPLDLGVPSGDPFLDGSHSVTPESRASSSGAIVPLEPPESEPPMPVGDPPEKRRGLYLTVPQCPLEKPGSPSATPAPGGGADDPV

SMILES | selectivity as calcium channel blocker [1] | tolerability ([2]; 94 healthy adult subjects, single dose up to 170 mg and multiple doses up to 160 mg for 7 to 14 days) | dose dependence of occurrence of adverse events [2, 5] | findings in vital signs, ECG and laboratory tests [2, 5] | severity of adverse events [2, 5] | safety findings ([2]; Phase 1 studies in healthy adults and healthy elderly subjects) | adverse drug reactions in the current clinical program ([2]; current clinical program) | tolerability of single doses ([2]; single doses up to 170 mg, healthy subjects) | safety findings [3] | effect on pain ([4]; IV infusion 2 mg/kg or 5 mg/kg, patients with painful diabetic neuropathy) | pain relief versus placebo ([4]; IV infusion 5 mg/kg, patients with painful diabetic neuropathy) | duration of pain relief following infusion ([4]; patients with diabetic neuropathy) | effect of systemic administration in neuropathic pain conditions ([4]; systemic administration, several neuropathic pain conditions)
O=C(c1cc(S(=O)(=O)Nc2ccccc2F)c(F)cc1Cl)N1CCN2CCC[C@@H]2C1 [Compound A, 4-chloro-2-fluoro-N-(2-fluorophenyl)-5-[(8aR)-hexahydropyrrolo[1,2-a]pyrazin-2(1H)-ylcarbonyl]benzenesulfonamide] | highly selective | well tolerated | does not appear to be dose-dependent | no clinically relevant findings | mild except one event | no clinically important safety findings | no adverse drug reactions identified | well-tolerated | no clinically important safety findings | – | – | – | –
CCN(CC)CC(=O)Nc1c(C)cccc1C [Lidocaine] | – | – | – | – | – | – | – | – | – | reduction of pain | consistent superiority to placebo | up to 21 days | analgesic effects
